Reference: US4444691A, “11-Cyano-prostaglandins of the F-series” (American Cyanamid Company, priority 1982, dated 1984)
Read-outs that look alike come from different tables or passages of the source.

How the values were obtained:
[1] = system: basal gastric acid secretion; test: Inhibition of total acid output (basal gastric acid secretion) in the acute gastric fistula rat; assay type: in vivo, female Sprague-Dawley rats; details: intraduodenal; for inhibition in vivo at 10 mg/kg / inhibition in vivo at 2.5 mg/kg / inhibition in vivo at 5 mg/kg: Rattus norvegicus
Description: Inhibition of basal gastric acid secretion can be determined by the following procedure.
Female Sprague-Dawley rats weighing 140-160 grams are fasted in individual cages for 18-24 hours. The rats are then lightly anesthetized with ether and their front teeth extracted to avoid destruction of the plastic cannula. A midline incision is then made and the stomach and duodenum exposed. A flanged polyvinyl tube is inserted into the fundic portion of the stomach and secured with a purse string suture line using 4-O Mersilene. The rat is then dosed by injection of the compound into the duodenum (1.0 ml. per 100 gram body weight). After dosing, the abdominal wall and skin are closed using metal wound clips. The rat is replaced in a cage containing a longitudinal slit to allow the polyvinyl tube to hang freely. An 8 ml. plastic collecting tube is attached to the flanged cannula and hangs freely below the cage. The first 30 minute sample is discarded designating this time as zero. The collecting tube is attached again and samples removed at the end of 60 and 120 minutes. These samples are referred to as "A" and "B" in the table. The hourly samples are then transferred to a 15 ml. centrifuge and centrifuged for 5-10 minutes. Total and sediment volume are then recorded with the supernatent volume being used as volume of secretion. A 1 ml. or less aliquot is then removed and placed in a 50 ml. beaker containing 10 ml. of distilled water. This sample is then titrated using 0.01 N NaPH to pH 7.0 using a Beckman zeromatic pH meter. Volume, titratable acidity (mew/L) and total acid output (ueq/hour) are recorded. Percent inhibition is determined by comparison with the appropriate control. Groups of three rats were used for preliminary testing, and groups of six rats were used for dose-response evaluations. All compounds are administered in a vehicle consisting of 0.5% methocel, 0.4% tween 80, and saline at a constant volume of 1 ml./100 gram rat. Samples are dispersed by sonification. Percent inhibition is calculated on basis of concurrent vehicle control.
In Table III which follows is given the effect on total acid output after 60 minutes and 120 minutes of intraduodenal dose, of representative compounds of this invention.

gastric acid secretion = test: Gastric acid secretion inhibition, modified Shay rat procedure; assay type: in vivo, rats (male, CFE strain); details: Rattus norvegicus, read-out: Percent inhibition of gastric acid secretion
From the text: The novel compounds of the present invention are effective inhibitors of gastric acid secretion and of ulcer development in experimental animals, and thus are potentially valuable as agents for the control of gastric secretion and of gastric erosion and as anti-ulcer agents. Gastric acid secretion inhibitory action is usually measured by the "Shay rat" procedure ^(1,2) with some modifications as follows.
(1) Shay et al., Gastroenterology, 5, 43 (1945).
The rats (male, CFE strain) were starved for 48 hours (water was given ad libitum) to permit evacuation of stomach contents. On the morning of the experiment, under ether anesthesia, the abdominal region was shaved and a midline incision (1-11/2" ) was made with a scapel. With the help of a closed curved hemostat the duodenum was picked up. Upon getting the duodenum into view, fingers were used to pull the stomach through the opening, the stomach was then gently manipulated with fingers to rid stomach of air and residual matter which were pushed through the pylorus. Two-5 inch sutures were drawn under the pyloric-duodenal puncture. A ligature at the juncture, was formed with one of the threads. The second ligature was also formed but not tightened.
The test compound or the vehicle, usually 1 ml./100 g. body weight, were injected into the duodenum as close as possible to the first ligature. After injection the second ligature was tightened below the injection site to minimize leakage. The stomach was placed back through the opening into the abdominal cavity, the area of incision was washed with saline and the incision was closed with autoclips. (Occasionally, instead of an intraduodenal injection, animals were dosed by the oral or subcutaneous route. In the latter case, dosing was done thirty to sixty minutes before the operation.)
The abdominal cavity was exposed by cutting with scissors and the esophagus close to the stomach was clamped off with a hemostat, the stomach was removed by cutting above the hemostat (the esophagus was cut) and between the two sutures. Extraneous tissue was removed, the stomach washed with saline and blotted on gauze. A slit was carefully made in the stomach which was held over a funnel and the contents were collected in a centrifuge tube. The stomach was further cut along the outside edge and turned inside out. Two ml. H2 O were used to wash the stomach contents into the respective centrifuge tube. The combined stomach contents and wash were then centrifuged out for 10 minutes in the International Size 2 Centrifuge (setting at 30). The supernatant was collected, volume measured and recorded, 2 drops of a phenylphthalein indicator (1% in 95% ethanol) were added and the solution was titrated with 0.02 N NaOH (or with 0.04 N NaOH when large volumes of stomach contents were encountered) to pH 8.4 (because of usual coloring of the stomach contents, phenolphthalein was only used to permit visual indication that the end point was near) and the amount of acid present was calculated.
Compounds inducing inhibition of gastric acid secretion of 20% or more were considered active. In a representative operation, and merely by way of illustration, the results obtained with this assay with typical compounds of the present invention are given in Table II below.

[2] = system: ulcerogenic effects induced by indomethacin (stomach ulcers); assay type: in vivo, rat; details: indomethacin 20 mg/kg s.c., score 0-4
Description: It is further to be noted that although prostaglandins in general are not effective when administered by oral route, the compounds of this invention are effective orally. The assay to determine the protective effect of these compounds is carried out in the following manner.
Rats were starved for 48 hours (water was given ad libitum). Indomethacin (20 mg./kg. of body weight) was administered by the subcutaneous route and one-half the dose of the test compound was administered by gavage at the same time. After three hours, the second half of the test compound was administered, also by gavage. Five hours after the administration of indomethacin the animals were decapitated and the stomachs removed. The stomachs were washed with distilled water, blotted on gauze, cut along the larger curvature, and the contents rinsed with distilled water. The stomachs were spread out, pinned on a cork and visualized under magnifying glass for ulcers. The criteria for scoring of ulcers was as previously reported. [Abdel-Galil et al. Brit. J. Pharmac. Chemotherapy 33:1-14 (1968)]. […]
1 Petechial hemorrhage of pin point ulcers
3 Many ulcers, a few large
4 Many ulcers, mainly large
Control animals treated with indomethacin but not test compound consistently give scores of about 2.5-3.5. Control animals treated with neither indomethacin not test compound give scores of about 0.5-0.8. Compounds diminishing the control ulcer score by 0.5 unit or more are considered to be active.

[3] = 1 h, 10 mg/kg, 60 min, read-out: % Inhibition of total acid output, after 60 minutes (A)
[4] = 2 h, 10 mg/kg, 120 min, read-out: % Inhibition of total acid output, after 120 minutes (B)
[5] = total oral dose 25 mg/kg, controls 2.7-3.9
[6] = total oral dose 50 mg/kg, controls 2.5-3.2
[7] = 1 h, 60 min, read-out: % Inhibition of total acid output, after 60 minutes (A)
[8] = 2 h, 120 min, read-out: % Inhibition of total acid output, after 120 minutes (B)

SMILES | inhibition in vivo at 10 mg/kg [1, 3] [%] | inhibition in vivo at 10 mg/kg [1, 4] [%] | inhibition in vivo at 50 mg/kg (gastric acid secretion; intraduodenal) [%] | further results
CCCCC[C@H](O)/C=C/[C@H]1[C@@H](CO)C[C@H](O)[C@@H]1C/C=C\CCCC(=O)O [l-11β-hydroxymethyl-11-deoxyprostaglandin-F2 α] | 0 | 43 |  | 
CCCCCC(C)/C=C/[C@H]1[C@H](C)CC(=O)[C@@H]1C/C=C\CCCC(=O)OC (stereo partly drawn) [11-deoxy-11α-methyl-15-deoxy-15-methylprostaglandin E2 methyl ester] |  |  | 40 | 
CCCCC[C@H](O)/C=C/[C@H]1C(C#N)CC(=O)[C@@H]1C/C=C\CCCC(=O)OC (stereo partly drawn) [11α/β-cyano-11-deoxyprostaglandin E2 methyl ester] |  |  | 33 | Ulcer score, treated animals [2, 5]: 1.3
CCCCC[C@H](O)/C=C/[C@@H]1[C@@H](C/C=C\CCCC(=O)O)[C@@H](O)C[C@H]1c1ccccc1 [l-11α-phenyl-11-deoxyprostaglandin-F2 α, l-11-deoxy-11α-phenylprostaglandin-F2 α] |  |  |  | Ulcer score, treated animals [2, 5]: 2.0
CCCCCC(O)/C=C/C1C(S)CC(O)C1C/C=C\CCCC(=O)O (stereo not drawn) [l-11-mercapto-11-deoxprostaglandin-F2 α, l-11-deoxy-11α-mercaptoprostaglandin-F2 α] |  |  |  | % Inhibition of total acid output, after 60 minutes (A) ([1]; 10 mg/kg, 60 min): 44%; % Inhibition of total acid output, after 120 minutes (B) ([1]; 10 mg/kg, 120 min): 55%
CCCCC[C@@H](/C=C/[C@H]1[C@H](SC)CC(=O)[C@@H]1C/C=C\CCCC(=O)OC)OC(C)=O [l-11α-methylthio-11-deoxyprostaglandin-E2 15-O--acetate methyl ester] |  |  | 35 | Ulcer score, treated animals [2, 6]: 2.0
CCCCC[C@H](O)/C=C/[C@H]1[C@H](SC)CC(=O)[C@@H]1C/C=C\CCCC(=O)OC [l-11α-methylthio-11-deoxyprostaglandin-E2 methyl ester] |  |  |  | inhibition in vivo at 100 mg/kg (gastric acid secretion; intraduodenal, 100 mg/kg): 55%
CCCCC[C@H](O)/C=C/[C@@H]1[C@@H](C/C=C\CCCC(=O)O)[C@@H](O)C[C@H]1C(C)(C)O [11-deoxy-11α-(1-hydroxy-1-methylethyl)prostaglandin-F2α] | 36 | 35 |  | 
CCCCCC(C)/C=C/C1C(C)CC(=O)C1C/C=C\CCCC(=O)O (stereo not drawn) [l-11α,15-dimethyl-11,15-bis-deoxyprostaglandin-E2 α] |  |  |  | Ulcer score, treated animals [2, 6]: 2.2
CCCCCC(C)/C=C/[C@@H]1[C@@H](C/C=C\CCCC(=O)O)[C@@H](O)C[C@H]1C (stereo partly drawn) [l-9α-hydroxy-11α,15-dimethyl-S--cis,13-trans-prostadienoic acid] | 25 | 20 |  | 
CCCCC[C@@H](/C=C/[C@H]1[C@H](C)CC(=O)[C@@H]1C/C=C\CCCC(=O)OC)OC(C)=O [l-11α-methyl-11-deoxyprostaglandin-E2 15-O--acetyl methyl ester] |  |  | 63 | 
CCCCC[C@H](O)/C=C/[C@H]1[C@H](CC)C[C@H](O)[C@@H]1C/C=C\CCCC(=O)O [l-11α-ethyl-11-deoxyprostaglandin-F2 α, 11α-ethyl-11-deoxyprostaglandin F2α] |  |  |  | Ulcer score, treated animals [2, 5]: 2.2
CCCCC[C@H](O)/C=C/[C@@H]1[C@@H](C/C=C\CCCC(=O)O)[C@@H](O)C[C@H]1C(N)=O [11α-carboxamido-11-deoxyprostaglandin F2α] |  |  | 27 | Ulcer score, treated animals [2, 6]: 2.3
CCCCC[C@H](O)/C=C/[C@@H]1[C@@H](C/C=C\CCCC(=O)O)[C@@H](O)C[C@H]1C(C)C [11α-isopropyl-11-deoxyprostaglandin F2α] | 44 | 35 |  | 
CCCCC[C@@H](/C=C/[C@H]1[C@H](SCC)CC(=O)[C@@H]1C/C=C\CCCC(=O)OC)OC(C)=O [11-deoxy-11α-ethylthio-15-O-acetyl prostaglandin E2 methyl ester] | 80 | 24 | 27 | inhibition in vivo at 2.5 mg/kg [1, 7]: 54%; inhibition in vivo at 5 mg/kg [1, 7]: 19%; inhibition in vivo at 2.5 mg/kg [1, 8]: 51%; inhibition in vivo at 5 mg/kg [1, 8]: 59%
CCCCC[C@H](O)/C=C/[C@H]1[C@H](C(C)(C)O)CC(=O)[C@@H]1C/C=C\CCCC(=O)O [11-deoxy-11α-(1-hydroxy-1-methylethyl)prostaglandin-E2] |  |  |  | inhibition in vivo at 8 mg/kg (gastric acid secretion; sc, subcutaneous, 8 mg/kg): 31%
